{
  "source": "patent US10137185B2",
  "about": "“PAP peptide analogues” (THE NOTTINGHAM TRENT UNIVERSITY, priority 2014, dated 2018)",
  "key": {"[1]": {"tested_on": "PBMCs isolated from patients with prostate cancer", "experiment": "IFNγ ELISA of supernatants of PBMCs, Norway clinical trial", "type": "cell-based, human", "experimental": "FIG. 8. Fold change in the IFNγ response generated by PBMCs isolated from patients with prostate cancer from the Norway Clinical Trial after re-stimulation with of PAP-115-123 epitope peptide (10 μg), as assessed using an ELISA. Patients that were reported to have responded to the treatment (p10, p12, p15, p19, p101, p102, p107, p108) are indicated by red bars. […] The cryopreserved PBMCs were washed and rested overnight, at which time 4×10^4 cells were added to each well of a 96 well plate. PAP-115-123 epitope peptide (10 μg) was added to each well and the plates cultured for 48 hours. Supernatants were harvested and analysed for IFNγ secretion.\nCryopreserved PBMCs were thawed, washed and rested overnight, at which time 4×10^4 cells were added to each well of an ELISPOT plate. PAP-115-123 epitope peptide (10 μg) was to each well and cells were cultured for 48 hours. The plates were developed according to the manufacturer's protocol. PBMCs cultured with HIV-derived peptide or no peptide were used as controls. A 2-4 fold higher PAP-115-123 specific IFNγ response was observed using PBMCs from 8 of the responder patients and 2-12 fold decreases in the IFNγ response was observed using PBMCs from 4 of the non-responder patients (FIG. 7). IFNγ secretion in these samples was confirmed by analysing harvested supernatants using an R&D Systems ELISA (FIG. 8). […]"}, "[2]": {"tested_on": "PBMCs isolated from patients with prostate cancer", "experiment": "IFNγ ELISPOT of pre- and post-vaccination PBMCs, Norway clinical trial (mRNA-transfected DC vaccine)", "type": "cell-based, human", "details": "for post-vaccination samples with significantly higher peptide-specific IFNγ response than pre-vaccination: of 8 responder samples, 48 hours", "excerpt": "FIG. 4. The flow chart of Norway clinical trial. Monocytes were isolated from patients with prostate cancer and cultured in vitro. mRNA isolated from the prostate cancer cell lines DU145, LNCAP and PC3 were transfected into immature dendritic cells (DCs). The DCs were then allowed to mature and were re-infused back into the patient. PBMCs isolated a week before (pre-vaccination) and 12 weeks after immunisations (post-vaccination) were used in this study. The patients were categorised as responders and non-responders based on the PSA levels and also metastatic state of the disease based on bone scans post immunisation.\nFIG. 5. IFNγ response of PBMCs isolated from patients with prostate cancer who had responded to the therapy and were categorised as being ‘responders’ on the basis of the criteria detailed above (Norway Clinical Trial) after re-stimulation with PAP-115-123 epitope peptide (10 μg), as determined using the ELISPOT assay. PBMCs isolated pre-vaccination (black bars) and post vaccination (red bars) are compared. Patient samples are represented as p10, p12, p15 etc. The cryopreserved PBMCs were washed and rested overnight, at which time 4×10^4 cells were added to each well of an ELISPOT plate. PAP-115-123 epitope peptide (10 μg) was added to each well and the cells cultured for 48 hours. The plates were then washed according to the manufacturer's protocol. PBMCs cultured with an HIV-derived peptide or no added peptide were used as controls. Comparisons of means (±SEM) between groups (pre-vaccination or post-vaccination PBMCs) are made using an unpaired t test.\nFIG. 6. IFNγ response of PBMCs isolated from patients with prostate cancer who had responded to the therapy and were categorised as being ‘responders’ on the basis of the criteria detailed above after re-stimulation with PAP-115-123 epitope peptide (1 μg), as determined using the ELISPOT assay. PBMCs isolated pre-vaccination (black bars) and post-vaccination (red bars) are compared here. Patient samples are represented as p10, p12, p15 etc. The cryopreserved PBMCs were washed and rested overnight, at which time 4×10^4 cells were added to each well of an ELISPOT plate. PAP-115-123 epitope peptide (1 μg) was added to each well and the cells cultured for 48 hours. The plates were then washed according to manufacturer's protocol. PBMCs cultured with HIV-derived peptide or no added peptide were used as controls. Comparisons of means (±SEM) between groups (pre-vaccination or post-vaccination PBMCs) are made using an unpaired t test.\nFIG. 7. Fold change in the IFNγ response generated by PBMCs isolated from patients with prostate cancer from the Norway Clinical Trial after restimulation with PAP-115-123 epitope peptide (10 μg), as determined using the ELISPOT assay. Patients that were reported to have responded to the treatment (p10, p12, p15, p19, p101, p102, p107, p108) are indicated by red bars. […] The cryopreserved PBMCs were washed and rested overnight, at which time 4×10^4 cells were added to each well of an ELISPOT plate. PAP-115-123 epitope peptide (10 μg) was added to each well and the plates cultured for 48 hours. The plates were then washed according to the manufacturer's protocol. PBMCs cultured with HIV-derived peptide or no added peptide were used as control.\nThe presence of circulating PAP-115-123 specific T cells in PBMCs isolated from patients with prostate cancer following treatment with DCs that had been transfected with mRNA isolated from the prostate cancer cell lines (DU145, LNCaP and PC3) as part of a Norwegian Clinical Trial which was performed by Professor Gustav Gaudernack was determined on the basis of their responsiveness to PAP-derived peptides. In the trial, DCs were isolated from patients with prostate cancer and cultured DCs were transfected with mRNA isolated from the prostate cancer cell lines (DU145, LNCaP and PC3). The matured DCs were re-infused back into the patients (FIG. 4). […]"}},
  "note": "Where “and” joins values, the source holds several entries; their conditions need not be identical. Equal entries are not always repeated.",
  "data": [
    {"sequence": "SAMTNLAAL [PAP-115-123]", "values": [
      {"measurement": "fold lower IFNγ levels post vs pre vaccination, non-responders", "setting": "[1]; 10 μg peptide", "value": "2-2.5 fold"},
      {"measurement": "fold higher IFNγ levels post vs pre vaccination, responders", "setting": "[1]; all responders except p19, 10 μg peptide", "value": "1-1.5 fold"},
      {"measurement": "number of spots, pre-vaccination samples", "setting": "[2]; 1 μg peptide", "value": "10-30 spots"},
      {"measurement": "number of spots, post-vaccination samples", "setting": "[2]; 1 μg peptide, patients p12, p19, p101, p102, p107, p108", "value": "60-140 spots"},
      {"measurement": "number of spots, pre-vaccination samples", "setting": "[2]; 10 μg peptide", "value": "10-30 spots"},
      {"measurement": "number of spots, post-vaccination samples", "setting": "[2]; 10 μg peptide, patients p12, p15, p19, p102, p107, p108", "value": "60-160 spots"},
      {"measurement": "fold decrease in IFNγ response post vs pre vaccination, non-responders", "setting": "[2]; 4 non-responder patients, 10 μg peptide, ELISPOT", "value": "2-12 fold and 2-10 fold"},
      {"measurement": "fold higher peptide-specific IFNγ response post vs pre vaccination, responders", "setting": "[2]; 8 responder patients, 10 μg peptide, ELISPOT", "value": "2-4 fold"},
      {"measurement": "post-vaccination samples with significantly higher peptide-specific IFNγ response than pre-vaccination", "setting": "[2]; 1 μg peptide", "value": 6},
      {"measurement": "post-vaccination samples with significantly higher peptide-specific IFNγ response than pre-vaccination", "setting": "[2]; 10 μg peptide", "value": 6}
    ]}
  ]
}
